In patent publication US4861769A, “Cephem compounds” (Fujisawa Pharmaceutical Co., Ltd., priority 1985, dated 1989):
Converted amounts (≈) assume the structure as drawn.

Tests used:
Format in all cases: cell-based
[1] = test system: S. aureus 209P JC-1; test: In vitro antibacterial activity, two-fold agar-plate dilution method (MIC), S. aureus 209P JC-1; settings: Staphylococcus aureus, heart infusion agar, 37° C., 20 hours, read-out: MIC (minimal inhibitory concentration)
Procedure: (§1) Now in order to show the utility of the object compounds [I], the test data on MIC (minimal inhibitory concentration) of representative compounds [I] of this invention are shown in the following.
(§2) In vitro antibacterial activity was determined by the two-fold agar-plate dilution method as described below.
(§3) One loopful of an overnight culture of each test strain in Trypticase-soy broth (10^6 viable cells per ml) was streaked on heart infusion agar (HI-agar) containing graded concentrations of representative test compound, and the minimal inhibitory concentration (MIC) was expressed in terms of μg/ml after incubation at 37° C. for 20 hours.

[2] = test system: E. coli 31; test: In vitro antibacterial activity, two-fold agar-plate dilution method (MIC), E. coli 31; settings: Escherichia coli, heart infusion agar, 37° C., 20 hours, read-out: MIC (minimal inhibitory concentration)
Procedure: as §1, §2, §3

[3] = test system: E. coli 58; test: In vitro antibacterial activity, two-fold agar-plate dilution method (MIC), E. coli 58; settings: Escherichia coli, heart infusion agar, 37° C., 20 hours, read-out: MIC (minimal inhibitory concentration)
Procedure: as §1, §2, §3

[4] = test system: P. mirabilis 1; test: In vitro antibacterial activity, two-fold agar-plate dilution method (MIC), P. mirabilis 1; settings: Proteus mirabilis, heart infusion agar, 37° C., 20 hours, read-out: MIC (minimal inhibitory concentration)
Procedure: as §1, §2, §3

[5] = test system: P. vulgaris IAM 1025; test: In vitro antibacterial activity, two-fold agar-plate dilution method (MIC), P. vulgaris IAM 1025; settings: Proteus vulgaris, IAM1025, heart infusion agar, 37° C., 20 hours, read-out: MIC (minimal inhibitory concentration)
Procedure: as §1, §2, §3

MIC [1] [µg/mL]	MIC [2] [µg/mL]	MIC [3] [µg/mL]	MIC [4] [µg/mL]	MIC [5] [µg/mL]	SMILES
1.56 (≈ 3.24 µM)	0.05 (≈ 0.104 µM)	0.05 (≈ 0.104 µM)	0.05 (≈ 0.104 µM)	≤ 0.025	CC(=O)OCC1=C(C(=O)O)N2C(=O)[C@@H](NC(=O)/C(=N\OC3CC3)c3csc(N)n3)[C@H]2SC1 [(9)]
0.39 (≈ 0.679 µM)	≤ 0.025	0.05 (≈ 0.0871 µM)	0.2 (≈ 0.348 µM)	≤ 0.025	Nc1nc(/C(=N/OC2CC2Cl)C(=O)N[C@@H]2C(=O)N3C(C(=O)O)=C(CSc4nncs4)CS[C@H]23)cs1 (single isomer, unassigned) [(7)]
0.39 (≈ 0.779 µM)	≤ 0.025	0.05 (≈ 0.0999 µM)	0.1 (≈ 0.2 µM)	0.05 (≈ 0.0999 µM)	Nc1nc(/C(=N/OC2CC2)C(=O)N[C@@H]2C(=O)N3C(C(=O)[O-])=C(C[n+]4ccccc4)CS[C@H]23)cs1 [(1)]
0.39 (≈ 0.723 µM)	≤ 0.025	≤ 0.025	0.05 (≈ 0.0927 µM)	≤ 0.025	Nc1nc(/C(=N/OC2CC2)C(=O)N[C@@H]2C(=O)N3C(C(=O)O)=C(CSc4nncs4)CS[C@H]23)cs1 [(2)]
0.39 (≈ 0.685 µM)	0.05 (≈ 0.0878 µM)	0.2 (≈ 0.351 µM)	1.56 (≈ 2.74 µM)	0.05 (≈ 0.0878 µM)	Nc1nc(/C(=N/OC2CC2(Cl)Cl)C(=O)N[C@@H]2C(=O)N3C(C(=O)[O-])=C(C[n+]4ccccc4)CS[C@H]23)cs1 (some centres unmarked) [(6)]
0.39 (≈ 0.679 µM)	≤ 0.025	0.05 (≈ 0.087 µM)	0.1 (≈ 0.174 µM)	0.05 (≈ 0.087 µM)	Nc1nc(/C(=N/OC2CC2)C(=O)N[C@@H]2C(=O)N3C(C(=O)O)=C(CSc4ccc5nnnn5n4)CS[C@H]23)cs1 [(4)]
0.78 (≈ 1.56 µM)	< 0.025	0.2 (≈ 0.399 µM)	0.2 (≈ 0.399 µM)	0.1 (≈ 0.199 µM)	Nc1nc(/C(=N/OC2CC2)C(=O)N[C@@H]2C(=O)N3C(C(=O)[O-])=C(C[n+]4ccccc4)CS[C@H]23)ns1 [(10)]
0.39 (≈ 0.723 µM)	≤ 0.025	≤ 0.025	0.05 (≈ 0.0927 µM)	≤ 0.025	Nc1nc(/C(=N/OC2CC2)C(=O)N[C@@H]2C(=O)N3C(C(=O)O)=C(CSc4ncns4)CS[C@H]23)cs1 [(5)]
0.78 (≈ 1.45 µM)	≤ 0.025	0.05 (≈ 0.0927 µM)	0.1 (≈ 0.185 µM)	0.1 (≈ 0.185 µM)	Nc1nc(/C(=N/OC2CC2)C(=O)N[C@@H]2C(=O)N3C(C(=O)O)=C(CSc4cnns4)CS[C@H]23)cs1 [(8)]
0.39 (≈ 0.672 µM)	≤ 0.025	≤ 0.025	0.05 (≈ 0.0861 µM)	0.05 (≈ 0.0861 µM)	Cn1c(SCC2=C(C(=O)O)N3C(=O)[C@@H](NC(=O)/C(=N\OC4CC4)c4csc(N)n4)[C@H]3SC2)n[nH]c(=O)c1=O [(3)]
